# Laboratory results taken from patent publication US8906904B2, “Alkoxy pyrazoles as soluble guanylate cyclase activators” (Boehringer Ingelheim International GmbH, priority 2012, dated 2014).
# Columns and labels:
# [1] = human liver microsome (HLM) metabolic stability assay; assay type: in vitro ADME; details: human liver microsomes; % hepatic blood flow calculated from t1/2
# Protocol: The 5 time point, high-throughput human liver microsome (HLM) metabolic stability assay is designed to determine in vitro compound metabolism. Compounds are incubated with HLMs at a concentration of 1 uM, at 37° C., for a total of 60 min. The percent of compound remaining at 5, 15, 30, and 60 min is used to calculate the t½ (min), CLint (mL/min/kg), CLh (mL/min/kg), and % Qh. The assay is based on a 96-well format and can accommodate up to 92 compounds per plate (n=1).
# Using the 96-well multi-channel head, the Biomek FX, equipped with a Peltier heating block/shaker, is programmed to accomplish the following steps: • 1. Pipette 175 uL of 1.15 mg/mL microsomes into each of the 96 conical inserts (Analytical Sales and Products, catalog number 96PL05) that fit into the plate of the Peltier heating block/shaker (the incubation plate) • 2. Add 5 uL of compounds from the assay plate to the microsomes and shake the mixture at 600 rpm at 42.1° C. for 10 min (a setting of 42.1° C. on the Peltier is required for the samples to incubate at 37° C.) • 3. After 10 min, prompt the user to add the NADPH plate to the deck and add 20 uL from the NADPH plate to the incubation plate to start the reaction • 4. Add 215 uL of 100%, cold acetonitrile containing an internal standard(s) to a 0 minute, 5 minute, 15 minute, 30 minute, and 60 minute “quench” plate • 5. At 0 min, 5 min, 15 min, 30 min, and 60 min into the incubation, aspirate 12 uL from the incubation mixture and add it to the quench solution to stop the reaction • 6. Add 185 uL HPLC grade water to each well of the 0, 5, 15, 30 and 60 minute quench plates to dilute compounds to the appropriate concentration for the mass spectrometer
# After all time points are collected, the quench plates are sealed with 96-well pierceable plate mats or heat sealing foil and centrifuged at 3000 rpm for 15 min to pellet the microsomes.
# The plates are analyzed using LC/MS/MS with electron spray ionization (ESI) and the previously determined MRM transitions. The LC method includes the following parameters:
# Using an Excel template in Activitybase, the peak areas corresponding to 5, 15, 30 and 60 min are compared to the peak area at 0 min to calculate the percent of remaining compound using the following equation: Percent compound remaining=(AUC at Time t min/AUC at Time 0 min)×100 where t=0, 5, 15, 30 or 60 min.
# Time (min) is plotted against the natural logarithm (Ln) of the percent compound remaining to determine the slope. The slope is used to calculate t½ (min) using the equation, t½=0.693/slope.
# Preferred compounds have % Qh values of less than 24.
# [2] = Assessment of solubility (McIlvaine buffers, 24 h shake, UPLC-UV); assay type: physicochemical; details: kinetic from dmso stock
# Protocol: Solubility is measured by the following method.
# 100 uL, 10 mM DMSO stock solution of each compound is prepared in a 96 well plate format. The experiment is done in single determination at 3 pH values (2.2, 4.5 and 6.8). For each pH and one reference, 40 uL of each compound is needed.
# McIlvaine pH 2.2: To 2.076 g citric acid monohydrate and 0.043 g Na2HPO4×2H2O add 100 ml deionized water
# McIlvaine pH 4.5: To 1.166 g citric acid monohydrate and 1.585 g Na2HPO4×2H2O add 100 ml deionized water
# McIlvaine pH 6.8: To 0.476 g citric acid monohydrate and 2.753 g Na2HPO4×2H2O add 100 ml deionized water
# With a suitable liquid handling device (Multipette® or a liquid handler) 390 uL of each buffer solution and 10 uL of compound is added to each well of a 96 deep well plate. The plates are covered firmly and shaken for 24 h on an over head shaker (at 54 RPM) at room temperature. The DMSO content in the final buffer is 2.5% v/v.
# After 24 h the plates are centrifuged to remove droplets on the lid before opening (for ˜5 min at 2500 RPM).
# The filtration is done under vacuum with Millipore 96 well filter plate. Filtrate is collected in a deep well plate and transferred to a suitable plate for UPLC analysis.
# The reference plate is prepared by adding 10 uL of compound to 390 uL of 50:50 acetonitrile/water in a 96 deep well plate and transferred to a suitable plate for UPLC analysis. Wells are checked visually for precipitation, any presence noted under comments in reported results.
# The samples are measured with UPLC-UV using the chromatographic method described below.
# Waters Empower®2 software is used for generating Sample Sets (according to the plate layout), Sample Set Methods and Instrument Methods.
# One Sample Set comprises the methods for three 96 well plates (one reference plate and two sample plates, and includes one Sample Set Method and one Instrument Method).
# 3. Data Processing and Analysis
# The UV chromatograms collected at 254 nm are integrated and processed.
# It is assumed that the compound is completely dissolved in the reference solution (50:50 acetonitrile/water)
SMILES,HLM (% Qh) [1],"solubility at 24 h ([2]; pH 2.2, aqueous buffer)","solubility at 24 h ([2]; pH 4.5, aqueous buffer)","solubility at 24 h ([2]; pH 6.8, aqueous buffer)"
COc1c(C(=O)O)cnn1-c1cccc(-c2cccc(C)c2OCc2ccc3c(c2)CCN(CC2(C)COC2)C3)n1 [Compound 12],<24 % Qh,0.11 mg/mL,0.09 mg/mL,0.092 mg/mL
CCOc1c(C(=O)O)cnn1-c1cccc(-c2cccc(C)c2OCc2ccc3c(c2C)CCN(C2COC2)C3)n1 [Compound 164],<24 % Qh,0.1 mg/mL,0.072 mg/mL,0.093 mg/mL
CCOc1c(C(=O)O)cnn1-c1cccc(-c2cccc(C)c2OCc2ccc3c(c2)OCCN(C2CCOCC2)C3)n1 [Compound 131],28 % Qh,0.13 mg/mL,0.097 mg/mL,0.11 mg/mL
COc1c(C(=O)O)cnn1-c1cccc(-c2cccc(C)c2OCc2ccc3c(c2)CCN(C2COC2)C3)n1 [Compound 8],<24 % Qh,0.11 mg/mL,0.082 mg/mL,0.098 mg/mL
CCOc1c(C(=O)O)cnn1-c1cccc(-c2cccc(C)c2OCc2ccc3c(c2C)CCN(CC2CCOCC2)C3)n1 [Compound 172],<24 % Qh,0.11 mg/mL,0.087 mg/mL,0.085 mg/mL
COc1c(C(=O)O)cnn1-c1cccc(-c2cccc(C)c2OCc2ccc3c(c2C)CCN(C[C@@H]2COCCO2)C3)n1 [Compound 139],<24 % Qh,0.13 mg/mL,0.11 mg/mL,0.12 mg/mL
"CCOc1c(C(=O)O)cnn1-c1cccc(-c2cccc(C)c2OCc2ccc3c(c2C)CCN(C(=O)C2CCOCC2)C3)n1 [Compound 147, 5-Ethoxy-1-(6-{3-methyl-2-[5-methyl-2-(tetrahydro-pyran-4-carbonyl)-1,2,3,4-tetrahydro-isoquinolin-6-ylmethoxy]-phenyl}-pyridin-2-yl)-1H-pyrazole-4-carboxylic acid]",<24 % Qh,0.0012 mg/mL,0.0031 mg/mL,0.075 mg/mL
COCCOc1c(C(=O)O)cnn1-c1cccc(-c2cccc(C)c2OCc2ccc3c(c2C)CCN(C2CCOC2)C3)n1 (centres unmarked) [Compound 150],<24 % Qh,0.1 mg/mL,0.067 mg/mL,0.078 mg/mL
Cc1cccc(-c2cccc(-n3ncc(C(=O)O)c3OC(C)C)n2)c1OCc1ccc2c(c1)CCN([C@H]1CCCOC1)C2 [Compound 115],25 % Qh,0.089 mg/mL,0.071 mg/mL,0.043 mg/mL
CCOc1c(C(=O)O)cnn1-c1cccc(-c2cccc(C)c2OCc2ccc3c(c2C)CCN(C[C@@H]2CCCOC2)C3)n1 [Compound 152],<24 % Qh,0.097 mg/mL,0.074 mg/mL,0.074 mg/mL
COc1c(C(=O)O)cnn1-c1cccc(-c2cccc(C)c2OCc2ccc3c(c2C)CCN(S(C)(=O)=O)C3)n1 [Compound 160],44 % Qh,< 0.0001 mg/mL,0.00093 mg/mL,0.073 mg/mL
COc1c(C(=O)O)cnn1-c1cccc(-c2cccc(C)c2OCc2ccc3c(c2)CCN(CC(C)(C)C)C3)n1 [Compound 14],31 % Qh,0.11 mg/mL,0.082 mg/mL,0.076 mg/mL
CCOc1c(C(=O)O)cnn1-c1cccc(-c2cccc(C)c2OCc2ccc3c(c2C)CCN(CC2CCOC(C)(C)C2)C3)n1 (centres unmarked) [Compound 163],<24 % Qh,0.11 mg/mL,0.075 mg/mL,0.073 mg/mL
COc1c(C(=O)O)cnn1-c1cccc(-c2cccc(C)c2OCc2ccc3c(c2C)CCN([C@@H]2CCOC2)C3)n1 [Compound 106],<24 % Qh,0.088 mg/mL,0.069 mg/mL,0.073 mg/mL
COc1c(C(=O)O)cnn1-c1cccc(-c2ccc(C)cc2OCc2ccc3c(c2)CCN(C2CCOCC2)C3)n1 [Compound 98],31 % Qh,0.15 mg/mL,0.11 mg/mL,0.099 mg/mL

# The next lines start with the values.
HLM (% Qh) [1],"solubility at 24 h ([2]; pH 2.2, aqueous buffer)","solubility at 24 h ([2]; pH 4.5, aqueous buffer)","solubility at 24 h ([2]; pH 6.8, aqueous buffer)",SMILES
<24 % Qh,0.11 mg/mL,0.078 mg/mL,0.094 mg/mL,CCOc1c(C(=O)O)cnn1-c1cccc(-c2cccc(C)c2OCc2ccc3c(c2)CCN([C@@H]2CCOC2)C3)n1 [Compound 112]
<24 % Qh,0.099 mg/mL,0.071 mg/mL,0.091 mg/mL,CCOc1c(C(=O)O)cnn1-c1cccc(-c2cccc(C)c2OCc2cc(C)c3c(c2)CCN(C2COC2)C3)n1 [Compound 174]
<24 % Qh,0.12 mg/mL,0.1 mg/mL,0.11 mg/mL,CC[C@H](C)Oc1c(C(=O)O)cnn1-c1cccc(-c2cccc(C)c2OCc2ccc3c(c2C)CCN(C2CCOCC2)C3)n1 [Compound 136]
<24 % Qh,0.094 mg/mL,0.08 mg/mL,0.084 mg/mL,Cc1cccc(-c2cccc(-n3ncc(C(=O)O)c3OC(C)C)n2)c1OCc1ccc2c(c1)CCN([C@@H]1CCCOC1)C2 [Compound 113]
<24 % Qh,0.093 mg/mL,0.077 mg/mL,0.078 mg/mL,CCOc1c(C(=O)O)cnn1-c1cccc(-c2cccc(C)c2OCc2ccc3c(c2C)CCN([C@@H]2CCCOC2)C3)n1 [Compound 128]
<24 % Qh,0.11 mg/mL,0.092 mg/mL,0.094 mg/mL,COc1c(C(=O)O)cnn1-c1cccc(-c2cccc(C)c2OCc2cc(C)c3c(c2C)CN(C2CCOCC2)C3)n1 [Compound 145]
<24 % Qh,0.13 mg/mL,0.096 mg/mL,0.12 mg/mL,CCOc1c(C(=O)O)cnn1-c1cccc(-c2cccc(C)c2OCc2ccc3c(c2)CCN([C@H]2CCOC2)C3)n1 [Compound 110]
<24 % Qh,0.12 mg/mL,0.099 mg/mL,0.098 mg/mL,COc1c(C(=O)O)cnn1-c1cccc(-c2cccc(C)c2OCc2cc(C)c3c(c2)CCN(C2CCOCC2)C3)n1 [Compound 171]
<24 % Qh,0.11 mg/mL,0.091 mg/mL,0.097 mg/mL,Cc1cc(COc2c(C)cccc2-c2cccc(-n3ncc(C(=O)O)c3OC(C)C)n2)cc2c1CN(C1CCOCC1)CC2 [Compound 161]
<24 % Qh,0.099 mg/mL,0.081 mg/mL,0.082 mg/mL,COc1c(C(=O)O)cnn1-c1cccc(-c2cccc(C)c2OCc2ccc3c(c2)CCN([C@H]2CC[C@]4(CCCO4)CC2)C3)n1 [Compound 102]
<24 % Qh,0.11 mg/mL,0.094 mg/mL,0.097 mg/mL,COc1c(C(=O)O)cnn1-c1cccc(-c2cccc(C)c2OCc2cc(C)c3c(c2C)CCN(C2CCOCC2)C3)n1 [Compound 120]
